Experimental data: US20160038505A1, “METHODS AND COMPOSITIONS FOR TREATING IMPULSE CONTROL DISORDER, ANXIETY-RELATED DISORDERS, VIOLENCE AND/OR ANGER, OR REGULATING FOOD INTAKE” (priority 2014, published 2016)

How the values were obtained:
[1] = tested on: adult wild type short-fin zebrafish; test: Zebrafish novel tank test (NTT), anxiety-related endpoints; assay type: in vivo
Procedure: A total of 60 adult wild type short-fin zebrafish (˜50:50 male:female ratio) were used in this study. Fish were housed in groups of 20-30 fish per 40-L tank. Tanks were filled with filtered water and maintained at 25° C. Illumination (1000-1100 1×) was provided by ceiling-mounted fluorescent lights on a 12-h cycle (on: 6.00 h, off: 18.00 h) according to the standards of zebrafish care. All fish used in this study were experimentally naïve and fed Tetramin Tropical Flakes (Tetra USA, Blacksburg, Va.) twice a day. Following behavioral testing, the animals were euthanized in 500 mg/L Tricaine (Sigma-Aldrich, St. Louis, Mo.) buffered to pH=7.0. Animal experimentation in this study fully adhered to national and institutional guidelines and regulations.
As such, a 1 mg/L dose of noribogaine (DMX1 or Cpd) was chosen. A standard 20-min pre-treatment time was chosen based on experience with a wide range of other neuroactive compounds and the results of pilot studies. This exposure time was also sufficient for provoking physiological (e.g., cortisol and c-fos) responses of zebrafish to multiple drugs. Noribogaine exposure in this study was performed by submerging individual zebrafish in a 1-L plastic beaker for 20 min prior to the testing. The solution was regularly changed after each exposure, to ensure that each fish is exposed to a consistent concentration of noribogaine. Control fish were exposed to noribogaine-free water for the same treatment time, as described above.
Apparatus: Behavioral testing was performed between 11:00 and 15:00 h using tanks with water adjusted to the holding room temperature (25° C.). The study used the novel tank test (NTT) protocol. NTT represents one of the most commonly used neurophenotyping tests for adult zebrafish. To avoid the test battery or handling effects, each assay was performed once, on a separate individual naïve fish each time. Prior to testing, fish were pre-exposed individually in a 1-L plastic beaker for 20 min to either noribogaine-treated or noribogaine-free water. During testing, zebrafish behavior was recorded by two trained observers blind to the treatments, who manually scored different behavioral endpoints (inter- and intra-rater reliability in all experiments >0.85) with subsequent automated analysis of generated traces by Ethovision XT8.5 software (Noldus IT, Wageningen, Netherlands). The NTT, used to assess zebrafish anxiety and locomotion, was a 1.5-L trapezoidal tank (15 cm height×28 cm top×23 cm bottom×7 cm width; Aquatic Habitats, Apopka, Fla.) maximally filled with water and divided into two equal virtual horizontal portions by a line marking the outside walls. Fish were individually pre-exposed to water (water control) or noribogaine (1, 5 and 10 mg/L) for 20 min and tested in the standard 5-min NTT.
Behavioral analyses: Zebrafish behavior was recorded by trained observers, scoring the latency to reach the top half of the tank(s), time spent in top(s), number of transitions to top, as well as the number and duration(s) of freezing bouts. Freezing was defined as a total absence of movement, except for the gills and eyes, for >2 s. Trials were also recorded to a computer using a USB webcam (2.0-megapixel, Gigaware, UK) and subsequently analyzed by Ethovision XT8.5, assessing distance traveled (m), velocity (m/s), and meandering endpoints. During manual observation, videos were recorded in MPEG1 format with the maximum sample rate 30 fps for each trial by auto-focusing 2.0 MP USB webcams, placed 25 cm in front of the tanks, and attached to laptop computers. Recorded videos were analyzed with Ethovision XT8.5 software. All environments were calibrated for each arena and the calibration axes were placed to designate the origin (0,0) at the center of each tank. The track data for each fish was exported as raw data into separate spreadsheets. […]

[2] = tested on: healthy, drug-free male volunteers; test: Pupillometry (pupillary miosis) in healthy volunteers; assay type: in vivo, human; conditions: 3-60 mg single oral dose, vs placebo p>0.9
Procedure: Pulse oximetry and capnography data were collected continuously using a GE Carescape B650 monitoring system from 2 hours prior to dosing and until six hours after dosing, and thereafter at 12, 24, 48 and 72 hours post-dosing. […] Pupillary miosis was assessed by pupillometry.

CC[C@H]1CC2C[C@H]3c4[nH]c5ccc(O)cc5c4CCN(C2)C13 [noribogaine]
anxiolytic-like behavior ([1]; 1 mg/L): robust anxiolytic-like behavior without any overt hyperactivity/hypoactivity or circling behaviors | efficacy, pilot experiments ([1]; 1 mg/L): sub-maximal efficacy | distance moved and velocity ([1]; 1-, 5- and 10-mg/L): moderate, but non-significant, decrease | freezing bouts frequency and duration of freezing ([1]; 1-, 5- and 10-mg/L): no difference in freezing bouts frequency | movement mobility (HF hi-mobility events) ([1]; 1-, 5- and 10-mg/L): dose-related disappearance of HF hi-mobility events | transitions to upper half of the tank ([1]; 1-, 5- and 10-mg/L vs control): none of the treatment groups showed a statistically significant change | overall turning rates and patterns (meander total) ([1]; 5- and 10-mg/L): statistically significant decrease in overall turning rates and patterns (meander) | swimming motor activity, pilot experiments ([1]; 5- and 10-mg/L): caused reduction in selected swimming motor activity levels | number of top transitions ([1]; 5 and 10 mg/L (control 10)): ~7 | EC50 ([1]; Danio rerio, 20 min, water immersion 20 min, read-out: half-efficacy on indices of anxiety levels (time in top, latency in top)): < 1 µg/mL | time spent in top portion of the tank ([1]; each of 1-, 5- and 10-mg/L): statistically significant increase in the duration of time spent in the defined top portion of the tank | latency to the upper half of the tank ([1]; each of 1-, 5- and 10-mg/L, 20 min immersion, 5-min NTT): statistically significant decrease in latency to the upper half of the tank | turning/rotation rate ([1]; significant at the 10 mg/L dose): decrease in turning/rotation rate | pupillary constriction (pupil diameter) [2]: no evidence of pupillary constriction
